Key:
Assay type in all cases: in vivo
[1] = test system: Italian ryegrass (Lolium multiflorum); test: Test B pre-/postemergence plant response
Excerpt: (§1) Seeds of plant species selected from bamyardgrass (Echinochloa crus-galli), kochia (Kochia scoparia), ragweed (common ragweed, Ambrosia elatior), Italian ryegrass (Lolium multiflorum), large (Lg) crabgrass (Digitaria sanguinalis), giant foxtail (Setaria faberii), momingglory (Ipomoea spp.), pigweed (Amaranthus retroflexus), velvetleaf (Abutilon theophrasti), wheat (Triticum aestivum), and corn (Zea mays) were planted into a blend of loam soil and sand and treated preemergence with a directed soil spray using test chemicals formulated in a non-phytotoxic solvent mixture which included a surfactant. At the same time, plants selected from these crop and weed species and also blackgrass (Alopecurus myosuroides), and galium (catchweed bedstraw, Galium aparine) were planted in pots containing the same blend of loam soil and sand and treated with postemergence applications of test chemicals formulated in the same manner. Plants ranged in height from 2 to 10 cm and were in the one- to two-leaf stage for the postemergence treatment. Treated plants and untreated controls were maintained in a greenhouse for approximately 10 days, after which time all treated plants were compared to untreated controls and visually evaluated for injury. Plant response ratings, summarized in Table B, are based on a 0 to 100 scale where 0 is no effect and 100 is complete control. A dash (-) response means no test result.

[2] = test system: barnyardgrass (Echinochloa crus-galli); test: Test B pre-/postemergence plant response
Excerpt: as §1

[3] = test system: corn (Zea mays); test: Test B pre-/postemergence plant response
Excerpt: as §1

[4] = test system: giant foxtail (Setaria faberii); test: Test B pre-/postemergence plant response
Excerpt: as §1

[5] = test system: kochia (Kochia scoparia); test: Test B pre-/postemergence plant response
Excerpt: as §1

[6] = test system: pigweed (Amaranthus retroflexus); test: Test B pre-/postemergence plant response
Excerpt: as §1

[7] = test system: ragweed (common ragweed, Ambrosia elatior); test: Test B pre-/postemergence plant response
Excerpt: as §1

[8] = test system: wheat (Triticum aestivum); test: Test B pre-/postemergence plant response
Excerpt: as §1

[9] = test system: blackgrass (Alopecurus myosuroides); test: Test B postemergence plant response
Summary of the method: (§2)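 Injury was assessed visually about 10 days after treatment, scored from 0 (no effect) to 100 (complete control) by comparison with untreated controls. Test chemicals had been applied postemergence to potted plants at the one- to two-leaf stage, grown in loam soil and sand in a greenhouse.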

[10] = test system: galium (catchweed bedstraw, Galium aparine); test: Test B postemergence plant response
Summary of the method: as §2

[11] = test system: barnyardgrass (Echinochloa crus-galli); test: Test C flooded paddy test plant response; conditions: Flood, 250 g ai/ha; scale of 0 to 100 where 0 is no effect and 100 is complete control; 13 to 15 days
Summary of the method: (§3)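 Plants grown to the 2-leaf stage; pots flooded to 3 cm above soil, test compounds applied directly to paddy water, depth maintained throughout. Greenhouse for 13 to 15 days, then visual rating versus controls on a 0–100 scale (0 no effect, 100 complete control).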

[12] = test system: ducksalad (Heteranthera limosa); test: Test C flooded paddy test plant response; conditions: Flood, 250 g ai/ha; scale of 0 to 100 where 0 is no effect and 100 is complete control; 13 to 15 days
Summary of the method: as §3

[13] = test system: rice (Oryza sativa); test: Test C flooded paddy test plant response; conditions: Flood, 250 g ai/ha; scale of 0 to 100 where 0 is no effect and 100 is complete control; 13 to 15 days
Summary of the method: as §3

[14] = test system: small-flower umbrella sedge (Cyperus difformis); test: Test C flooded paddy test plant response; conditions: Flood, 250 g ai/ha; scale of 0 to 100 where 0 is no effect and 100 is complete control; 13 to 15 days
Summary of the method: as §3

[15] = 31 g ai/ha, Postemergence, 0 to 100 scale, 0 no effect, 100 complete control
[16] = 125 g ai/ha, postemergence, 0 to 100 scale, 0 no effect, 100 complete control
[17] = Preemergence, 31 g ai/ha, 0 to 100 scale (0 no effect, 100 complete control)
[18] = Preemergence, 125 g ai/ha, 0 to 100 scale where 0 is no effect and 100 is complete control
[19] = 500 g ai/ha, postemergence, 0 to 100 scale, 0 no effect, 100 complete control
[20] = Preemergence, 125 g ai/ha, 0 to 100 scale (0 no effect, 100 complete control)
[21] = Preemergence, 500 g ai/ha, 0 to 100 scale where 0 is no effect and 100 is complete control
[22] = 31 g ai/ha, Preemergence, 0 to 100 scale where 0 is no effect and 100 is complete control
[23] = Postemergence, 31 g ai/ha, 0 to 100 scale (0 no effect, 100 complete control)

Structure (SMILES): COc1cccc(Oc2ncc(Cl)cn2)c1-c1cc(C(F)F)no1 [Compound 103]
- Plant response rating, Ryegrass, Italian [1, 15]: 0
- Plant response rating, Ryegrass, Italian [1, 16]: 10
- Ryegrass, Italian plant response rating [1, 17]: 0
- Plant response rating, Ryegrass, Italian [1, 18]: 0
- Plant response rating, Barnyardgrass [2, 15]: 0
- Plant response rating, Barnyardgrass [2, 16]: 40
- Barnyardgrass plant response rating [2, 17]: 0
- Plant response rating, Barnyardgrass [2, 18]: 50
- Plant response rating, Corn [3, 15]: 0
- Plant response rating, Corn [3, 16]: 30
- Plant response rating, Foxtail, Giant [4, 15]: 40
- Plant response rating, Foxtail, Giant [4, 16]: 70
- Foxtail, Giant plant response rating [4, 17]: 50
- Plant response rating, Foxtail, Giant [4, 18]: 90
- Plant response rating, Kochia [5, 15]: 0
- Plant response rating, Kochia [5, 16]: 30
- Kochia plant response rating [5, 17]: 0
- Plant response rating, Kochia [5, 18]: 10
- Plant response rating, Pigweed [6, 15]: 30
- Plant response rating, Pigweed [6, 16]: 80
- Pigweed plant response rating [6, 17]: 100
- Plant response rating, Pigweed [6, 18]: 100
- Plant response rating, Ragweed [7, 15]: 20
- Plant response rating, Ragweed [7, 16]: 60
- Ragweed plant response rating [7, 17]: 0
- Plant response rating, Ragweed [7, 18]: 10
- Plant response rating, Wheat [8, 15]: 0
- Plant response rating, Wheat [8, 16]: 0
- Plant response rating, Blackgrass [9, 15]: 30
- Plant response rating, Blackgrass [9, 16]: 90
- Plant response rating, Galium [10, 15]: 90
- Plant response rating, Galium [10, 16]: 100
- Barnyardgrass plant response rating [11]: 60
- Ducksalad plant response rating [12]: 40
- Rice plant response rating [13]: 30
- Sedge, Umbrella plant response rating [14]: 80

Structure (SMILES): CC(=O)c1cc(-c2ccccc2Oc2ncc(Cl)cn2)no1 [Compound 215]
- Plant response rating, Ryegrass, Italian [1, 16]: 0
- Plant response rating, Ryegrass, Italian [1, 19]: 50
- Ryegrass, Italian plant response rating [1, 20]: 0
- Plant response rating, Ryegrass, Italian [1, 21]: 0
- Plant response rating, Barnyardgrass [2, 16]: 20
- Plant response rating, Barnyardgrass [2, 19]: 90
- Barnyardgrass plant response rating [2, 20]: 40
- Plant response rating, Barnyardgrass [2, 21]: 90
- Plant response rating, Corn [3, 16]: 20
- Plant response rating, Corn [3, 19]: 40
- Plant response rating, Foxtail, Giant [4, 16]: 20
- Plant response rating, Foxtail, Giant [4, 19]: 80
- Foxtail, Giant plant response rating [4, 20]: 20
- Plant response rating, Foxtail, Giant [4, 21]: 90
- Plant response rating, Kochia [5, 16]: 0
- Plant response rating, Kochia [5, 19]: 10
- Kochia plant response rating [5, 20]: 0
- Plant response rating, Kochia [5, 21]: 0
- Plant response rating, Pigweed [6, 16]: 20
- Plant response rating, Pigweed [6, 19]: 100
- Pigweed plant response rating [6, 20]: 20
- Plant response rating, Pigweed [6, 21]: 90
- Plant response rating, Ragweed [7, 16]: 0
- Plant response rating, Ragweed [7, 19]: 20
- Ragweed plant response rating [7, 20]: 0
- Plant response rating, Ragweed [7, 21]: 0
- Plant response rating, Wheat [8, 16]: 0
- Plant response rating, Wheat [8, 19]: 20
- Plant response rating, Blackgrass [9, 16]: 0
- Plant response rating, Blackgrass [9, 19]: 40
- Plant response rating, Galium [10, 16]: 20
- Plant response rating, Galium [10, 19]: 70
- Barnyardgrass plant response rating [11]: 0
- Ducksalad plant response rating [12]: 0
- Rice plant response rating [13]: 0
- Sedge, Umbrella plant response rating [14]: 0

Structure (SMILES): Cc1csc(-c2ccccc2Oc2ncc(Cl)cn2)c1 [Compound 216]
- Plant response rating, Ryegrass, Italian [1, 22]: 0
- Plant response rating, Ryegrass, Italian [1, 16]: 0
- Plant response rating, Ryegrass, Italian [1, 23]: 0
- Ryegrass, Italian plant response rating [1, 20]: 0
- Plant response rating, Barnyardgrass [2, 22]: 0
- Plant response rating, Barnyardgrass [2, 16]: 10
- Plant response rating, Barnyardgrass [2, 23]: 10
- Barnyardgrass plant response rating [2, 20]: 10
- Plant response rating, Corn [3, 16]: 10
- Plant response rating, Corn [3, 23]: 0
- Plant response rating, Foxtail, Giant [4, 22]: 0
- Plant response rating, Foxtail, Giant [4, 16]: 0
- Plant response rating, Foxtail, Giant [4, 23]: 0
- Foxtail, Giant plant response rating [4, 20]: 0
- Plant response rating, Kochia [5, 22]: 0
- Plant response rating, Kochia [5, 16]: 20
- Plant response rating, Kochia [5, 23]: 10
- Kochia plant response rating [5, 20]: 0
- Plant response rating, Pigweed [6, 22]: 0
- Plant response rating, Pigweed [6, 16]: 30
- Plant response rating, Pigweed [6, 23]: 10
- Pigweed plant response rating [6, 20]: 0
- Plant response rating, Ragweed [7, 22]: 0
- Plant response rating, Ragweed [7, 16]: 0
- Plant response rating, Ragweed [7, 23]: 0
- Ragweed plant response rating [7, 20]: 0
- Plant response rating, Wheat [8, 16]: 0
- Plant response rating, Wheat [8, 23]: 0
- Plant response rating, Blackgrass [9, 16]: 10
- Plant response rating, Blackgrass [9, 23]: 0
- Plant response rating, Galium [10, 16]: 50
- Plant response rating, Galium [10, 23]: 20
- Barnyardgrass plant response rating [11]: 0
- Ducksalad plant response rating [12]: 0
- Rice plant response rating [13]: 0
- Sedge, Umbrella plant response rating [14]: 0

From patent US10131652B2, “Pyrimidinyloxy benzene derivatives as herbicides” (E. I. DU PONT DE NEMOURS AND COMPANY, priority 2014, dated 2018)
